Literature values, collected in patent publication US20140113009A1, “CONTROLLED APPLICATION OF CROSS-LINKING AGENT” (Avedro, Inc., priority 2012, published 2014).

Experiments:
[1] = compared with Riboflavin
[2] = combined with greater than 40 mM ascorbic acid; after 4 hours of light exposure

| solubility in water relative to Riboflavin [1] | Compound | Riboflavin remains unreacted [2] |
| --- | --- | --- |
| more soluble in water | Cc1cc2nc3c(=O)[nH]c(=O)nc-3n(C[C@H](O)[C@H](O)[C@H](O)COP(=O)(O)O)c2cc1C [FMN, Riboflavin-5-phosphate] |  |
|  | O=C1O[C@H]([C@@H](O)CO)C(O)=C1O [ascorbic acid] | more than 90% |
